Legend:
[1] = system: rats following moderate fluid percussion injury; assay: Mortality after moderate fluid percussion injury; format: in vivo, Male Sprague-Dawley rats; conditions: 1 mg/kg i.v. 30 min following moderate fluid percussion injury; died before the end of the study; saline 21.4% and 37.5%
Experimental: Rats were anesthetized with sodium pentobarbital (70 mg/kg i.p.), intubated, and implanted with femoral venous and arterial catheters. Brain temperature was assessed indirectly through a thermister in the temporalis muscle. Body temperature was maintained through a feedback-controlled heating blanket. Blood pressure was continuously monitored, and arterial blood gases analyzed periodically. After the animal was placed in a stereotaxic frame, the scalp and temporal muscle were reflected, and a small craniotomy (5 mm) located midway between the lambda and bregma sutures over the left parietal cortex allowed insertion of a Leur-Loc that is cemented in place. The fluid-percussion head injury device, manufactured by the Medical College of Virginia, consists of a plexiglass cylindrical reservoir filled with isotonic saline; one end includes a transducer that is mounted and connected to a 5 mm tube that attaches through a male Leur-Loc fitting to the female Leur-Loc cemented at the time of surgery. A pendulum strikes a piston at the opposite end of the device, producing a pressure pulse of approximately 22 msec duration, leading to deformation of underlying brain. The degree of injury is related to the pressure pulse, expressed in atmospheres (atm): 2.6 atm in our laboratory produces a moderate injury with regard to neurological and histological deficit. Sham (control) animals undergo anesthesia and surgery without fluid percussion brain injury. […]
Continuous variables compared across groups were examined using an analysis of variance (ANOVA) followed by Bonferroni correction (rightin reflex). Continuous variables subjected to repeated measurements over a period of time (cardiovascular and core temperature measurements) were analyzed using a repeated measurements ANOVA followed by Tukey's pairwise comparison at each time point. Ordinal measurements (composite neurological scores) were evaluated using the non-parametric Kruskal-Wallis ANOVA with individual, non-parametric Mann-Whitney U-tests. […]

[2] = system: mice following controlled cortical impact injury (CCI); assay: Beam walking task after controlled cortical impact injury (chronic neurological recovery); format: in vivo, Male C57Bl/6 mice
Experimental: Male C57Bl/6 mice (20-25 g) were obtained from Taconic Farms (Germantown, N.Y.) and housed in an area directly adjoining surgical and behavioral rooms for at least 1 week prior to any procedures. All mice were maintained at a constant temperature (22±2° C.) and a 12 hr light/dark cycle, with lights on at 6 am and all behavioral testing performed during the light cycle. Food and water were available ad libitumn.
The injury device consisted of a microprocessor-controlled pneumatic impactor with a 3.5 mm diameter tip. The impactor is vertically mounted on a mill table (Sherline, USA) which allows for precise adjustment in the vertical plane above the mouse head, which itself is secured to a stereotaxic apparatus (David Kopf Instruments, CA) attached to the instrument. The core rod of a linear voltage differential transducer (LVDT, Serotec, USA) is attached to the lower end of the impactor to allow measurement of velocities between 3.0 and 9.0 m/s. Velocity of the impactor is controlled by fine tuning both positive and negative (back) air pressures. An oscilloscope (Tektronix, USA) records the time/displacement curve produced by the downward force on the LVDT, allowing precise measurement of the impactor velocity.
Surgical anesthesia was induced and maintained with 4% and 2% isoflurane respectively, using a flow rate of 1.0-1.5 l oxygen per minute. Depth of anesthesia was assessed by monitoring respiration rate and palpebral and pedal-withdrawal reflexes. The animal was then placed onto a heated pad and core body temperature was monitored and maintained at 38+/−0.2° C. The head was mounted in a stereotaxic frame and the surgical site clipped and prepared with a series of three Nolvasan scrubs followed by sterile saline rinses. A 10 mm mid-line incision was made over the skull, the skin and fascia reflected, and a 4 mm craniotomy made on the central aspect of the left parietal bone with a tissue punch (Roboz, USA). Great care was taken with the removal of the parietal bone to avoid injury to the underlying dura mater which was continuously bathed in sterile normal saline warmed to 37.5° C. The impounder tip of the pneumatic injury device was cleaned with a pad, soaked in absolute alcohol, positioned to the surface of the exposed dura and automatically withdrawn the 44 mm stroke distance. Following injury at a moderate (6.0 m/s velocity, 1 mm tissue deformation depth) level, the incision was closed with interrupted 6-0 silk sutures, anaesthesia was discontinued and the mouse was placed into a heated cage to maintain normothermia for 45 minutes post-injury. All animals were monitored carefully for at least 4 hours post-surgery and then daily. To minimize variation between animals due to anaesthesia during acute neurological testing, 20 minutes was allowed for surgery and 5 minutes for suturing for each animal.
Conscious mice were placed in a mouse restrainer and injected via the lateral tail vein with either normal saline (injured controls; n=6), 1 mg/kg Compound 2a (n=8), Compound 10b (n=6), Compound 11b (n=6) or Compound 14c (n=6) at 30 minutes following controlled cortical impact injury (CCI). The values for n represents the number of mice in the particular treatment group. The investigator was blinded to drug treatment both at the time of surgery and for neurological and behavioral scoring.
Chronic neurological recovery was evaluated for all animals using a beam walking task, a method which is particularly good at discriminating fine motor coordination differences between injured and sham-operated animals. The device consisted of a narrow wooden beam 6 mm wide and 120 mm in length which was suspended 300 mm above a 60 mm-thick foam rubber pad. The mouse was placed on one end of the beam and the number of footfaults for the right hindlimb recorded over 50 steps counted in either direction on the beam. A basal level of competence at this task was established before surgery with an acceptance level of <10 faults per 50 steps. […]

## O=C1NC2(CCCCC2)C(=O)N2CCC[C@@H]12 [Compound 2a, Cyclo[(1-Amino-1-Cyclohexane-Carboxylic Acid)-Pro]]
[1]
  mortality rate: 25%
[2]; 1 mg/kg i.v. at 30 min following CCI
  beam walking, time course of recovery of function: began to show some recovery of function after 3 days
[2]; 1 mg/kg i.v. at 30 min following CCI, 14 days following injury, p<0.05
  beam walking performance (right hindlimb footfaults) compared with saline-treated injured animals: significant improvement in performance
[2]; 1 mg/kg i.v. at 30 min following CCI, 21 days post-injury, p<0.01
  beam walking outcome (right hindlimb footfaults) compared with saline-treated animals: continued improvement in outcome
[2]; 0.1, 1.0 or 10.0 mg/kg at 60 minutes following CCI
  dose with optimal effects in beam walking (inverted U-shaped dose-response curve): 1 mg/kg

— patent publication US8044103B2, “Cyclic dipeptides and azetidinone compounds and their use in treating CNS injury and neurodegenerative disorders” (Georgetown University, priority 1998, dated 2011)
